# Measured values as given in the supplement of paper PMC10307832.
# How the values were obtained:
# Test in all cases: relative viability (nuclei count vs DMSO), 5 days (fraction); higher = more cells survive
# YM155 + Vorinostat = compound: COCC[n+]1c2c(n(Cc3cnccn3)c1C)C(=O)c1ccccc1C2=O [YM155] + O=C(CCCCCCC(=O)Nc1ccccc1)NO [Vorinostat] (partner 1 µM)
# Method in brief: (§1)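 Dosing by pin tool came one day after lung cancer cell lines were seeded in 1536-well plates, using either one drug or a fixed anchor-drug dose plus five library-drug doses (not always all listed) in √10 steps. After 5 days, nuclei were counted on 4× images. Relative viability is treated-well nuclei count divided by vehicle-well nuclei count, and values are medians of duplicate plates.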
# YM155 + Dasatinib = compound: COCC[n+]1c2c(n(Cc3cnccn3)c1C)C(=O)c1ccccc1C2=O [YM155] + Cc1nc(Nc2ncc(C(=O)Nc3c(C)cccc3Cl)s2)cc(N2CCN(CCO)CC2)n1 [Dasatinib] (partner 0.075 µM)
# Method in brief: as §1
# YM155 + Decitabine = compound: COCC[n+]1c2c(n(Cc3cnccn3)c1C)C(=O)c1ccccc1C2=O [YM155] + Nc1ncn([C@H]2C[C@H](O)[C@@H](CO)O2)c(=O)n1 [Decitabine] (partner 2 µM)
# Method in brief: as §1
# Quizartinib + Vorinostat = compound: CC(C)(C)c1cc(NC(=O)Nc2ccc(-c3cn4c(n3)sc3cc(OCCN5CCOCC5)ccc34)cc2)no1 [Quizartinib] + O=C(CCCCCCC(=O)Nc1ccccc1)NO [Vorinostat] (partner 1 µM)
# Method in brief: as §1
Cell Line,relative viability (YM155 + Vorinostat; first compound 0.002 µM),relative viability (YM155 + Vorinostat; first compound 0.006325 µM),relative viability (YM155 + Vorinostat; first compound 0.02 µM),relative viability (YM155 + Vorinostat; first compound 0.06325 µM),relative viability (YM155 + Dasatinib; first compound 0.002 µM),relative viability (YM155 + Dasatinib; first compound 0.006325 µM),relative viability (YM155 + Dasatinib; first compound 0.02 µM),relative viability (YM155 + Dasatinib; first compound 0.06325 µM),relative viability (YM155 + Decitabine; first compound 0.002 µM),relative viability (YM155 + Decitabine; first compound 0.006325 µM),relative viability (YM155 + Decitabine; first compound 0.02 µM),relative viability (YM155 + Decitabine; first compound 0.06325 µM),relative viability (Quizartinib + Vorinostat; first compound 0.001 µM),relative viability (Quizartinib + Vorinostat; first compound 0.003162 µM),relative viability (Quizartinib + Vorinostat; first compound 0.01 µM),relative viability (Quizartinib + Vorinostat; first compound 0.03162 µM),relative viability (Quizartinib + Vorinostat; first compound 0.1 µM)
LC-2-ad,0.682,0.637,0.705,0.65,0.529,0.547,0.674,0.649,0.773,0.788,0.742,0.706,0.603,0.688,0.733,0.681,0.694
LCLC-97TM1,–,0.817,0.753,0.481,0.761,0.954,0.739,0.835,–,0.178,0.202,0.254,0.573,0.52,0.685,0.677,0.767
LCLC-103H,0.732,0.824,0.864,0.802,0.446,0.456,0.474,0.531,0.747,0.735,0.731,0.716,0.743,0.735,0.663,0.812,0.779
LK-2,0.304,0.139,0.388,0.305,0.275,0.271,0.266,0.294,0.29,0.14,0.341,0.362,0.179,0.185,0.306,0.315,0.294
LOU-NH91,0.883,0.921,0.949,0.932,0.539,0.62,0.569,0.599,0.766,0.812,0.852,0.831,0.86,1.04,0.899,0.721,1.12
LU99A,0.508,0.419,0.514,0.441,0.562,0.442,0.697,0.518,0.84,0.808,0.824,0.936,0.373,0.51,0.449,0.481,0.502
LXF-289,0.739,0.789,0.73,0.756,0.233,0.231,0.194,0.224,0.354,0.39,0.371,0.379,0.645,0.752,0.782,0.726,0.738
NCI-H23,–,0.555,0.626,0.544,0.634,0.692,0.785,0.601,–,0.278,0.291,0.363,0.576,0.6,0.545,0.593,0.649
NCI-H322M,0.85,0.925,0.854,0.909,0.238,0.271,0.278,0.26,0.689,0.722,0.7,0.753,0.867,0.842,0.836,0.878,0.903
NCI-H358,0.641,0.643,0.86,0.106,0.139,0.145,0.161,0.156,0.257,0.2,0.199,0.22,0.733,0.572,0.803,–,0.815
NCI-H441,0.741,0.716,0.741,0.268,0.609,0.674,0.558,0.495,0.277,0.243,0.248,0.189,0.755,0.683,0.972,0.595,0.834
NCI-H460,0.706,0.727,0.802,0.688,0.487,0.499,0.582,0.547,0.496,0.503,0.477,0.475,–,0.734,0.687,–,0.566
NCI-H520,0.824,0.695,0.736,0.729,0.197,0.174,0.217,0.185,0.469,0.531,0.531,0.397,–,0.607,0.768,0.61,0.573
NCI-H522,0.846,0.78,0.933,0.932,0.877,0.818,0.915,0.9,0.72,0.664,0.684,0.668,0.803,0.849,0.818,0.874,0.834
NCI-H596,0.554,0.468,0.676,0.551,0.653,0.58,0.544,0.692,0.886,1,1.02,1.04,0.565,0.775,0.61,0.686,0.6
NCI-H647,0.472,0.484,0.755,0.388,0.151,0.241,0.192,0.149,0.482,0.405,0.288,0.272,0.567,0.494,0.655,0.688,0.998
NCI-H650,0.364,0.491,0.5,0.312,0.446,0.524,0.509,0.44,0.329,0.3,0.282,0.293,0.464,0.445,0.416,0.456,0.54
NCI-H661,0.765,0.784,0.883,0.364,0.742,0.802,0.925,0.749,0.516,0.516,0.533,0.47,0.724,0.812,0.87,0.807,0.888
NCI-H1563,–,–,–,–,0.382,0.541,0.453,0.475,–,–,–,–,–,–,–,–,–
NCI-H1623,–,–,–,–,0.547,0.529,0.599,0.555,–,–,–,–,–,–,–,–,–
NCI-H1792,–,–,–,–,0.83,0.606,0.782,0.941,0.453,0.514,0.6,0.566,–,–,–,–,–
NCI-H2228,0.451,0.82,0.585,0.51,0.432,0.528,0.534,0.661,–,–,–,–,0.51,0.565,0.844,0.535,0.629
